The target of assay [1] is T1, TYK2 (Homo sapiens, UniProt P29597). Put plainly: TYK2 protein degradation in NOMO-1 cells by immunoblotting. The format is cell-based. The arrangement: endogenous in cells. Particulars: NOMO-1 cells. How it is done:
NOMO-1 cells were treated with CPD-155, CPD-157, and CPD-158 at 0.1, 1, 10, 100 and 1000 nM concentrations for 16 hours. […] Data shown that CPD-155, CPD-157, and CPD-158 are very potent at the reduction protein levels of TYK2.
MOLT-4 or NOMO-1 cells were cultured at 37° C. with 5% CO2 in RPMI 1640 Medium supplemented with 10% fetal bovine serum. Cells were authenticated using the short tandem repeat (STR) assays. Mycoplasma test results were negative.
Cultured cells were washed with cold PBS once and lysed in cold RIPA buffer supplemented with protease inhibitors and phosphatase inhibitors (Beyotime Biotechnology). The solutions were then incubated at 4° C. for 30 minutes with gentle agitation to fully lyse cells. Cell lysates were centrifuged at 13,000 rpm for 10 minutes at 4° C. and pellets were discarded. Total protein concentrations in the lysates were determined by BCA assays (Beyotime Biotechnology). Cell lysates were mixed with Laemmli loading buffer to 1× and heated at 99° C. for 5 min. Proteins were resolved on SDS-PAGE and visualized by chemiluminescence. Images were taken by a ChemiDoc MP Imaging system (Bio-Rad). Protein bands were quantitated using the accompanied software provided by Bio-Rad.
(In western blotting, separated proteins are transferred to a membrane and probed.)

Assay [2] deals with T1, TYK2. Description: TYK2 protein degradation in MOLT-4 cells by immunoblotting. The format is cell-based. The arrangement: endogenous in cells; host or cells: MOLT-4. The note with it: MOLT-4 cells, 24 hours. The procedure, abridged: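 MOLT-4 cells were exposed to compounds at 0.5 and 5 μM for 24 h, then lysed in RIPA buffer with protease and phosphatase inhibitors. TYK2 was detected by SDS-PAGE immunoblot with chemiluminescence, and band densitometry gave percent degradation.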

Each structure is given as a SMILES string.

T1 sequence (P29597 whole entry): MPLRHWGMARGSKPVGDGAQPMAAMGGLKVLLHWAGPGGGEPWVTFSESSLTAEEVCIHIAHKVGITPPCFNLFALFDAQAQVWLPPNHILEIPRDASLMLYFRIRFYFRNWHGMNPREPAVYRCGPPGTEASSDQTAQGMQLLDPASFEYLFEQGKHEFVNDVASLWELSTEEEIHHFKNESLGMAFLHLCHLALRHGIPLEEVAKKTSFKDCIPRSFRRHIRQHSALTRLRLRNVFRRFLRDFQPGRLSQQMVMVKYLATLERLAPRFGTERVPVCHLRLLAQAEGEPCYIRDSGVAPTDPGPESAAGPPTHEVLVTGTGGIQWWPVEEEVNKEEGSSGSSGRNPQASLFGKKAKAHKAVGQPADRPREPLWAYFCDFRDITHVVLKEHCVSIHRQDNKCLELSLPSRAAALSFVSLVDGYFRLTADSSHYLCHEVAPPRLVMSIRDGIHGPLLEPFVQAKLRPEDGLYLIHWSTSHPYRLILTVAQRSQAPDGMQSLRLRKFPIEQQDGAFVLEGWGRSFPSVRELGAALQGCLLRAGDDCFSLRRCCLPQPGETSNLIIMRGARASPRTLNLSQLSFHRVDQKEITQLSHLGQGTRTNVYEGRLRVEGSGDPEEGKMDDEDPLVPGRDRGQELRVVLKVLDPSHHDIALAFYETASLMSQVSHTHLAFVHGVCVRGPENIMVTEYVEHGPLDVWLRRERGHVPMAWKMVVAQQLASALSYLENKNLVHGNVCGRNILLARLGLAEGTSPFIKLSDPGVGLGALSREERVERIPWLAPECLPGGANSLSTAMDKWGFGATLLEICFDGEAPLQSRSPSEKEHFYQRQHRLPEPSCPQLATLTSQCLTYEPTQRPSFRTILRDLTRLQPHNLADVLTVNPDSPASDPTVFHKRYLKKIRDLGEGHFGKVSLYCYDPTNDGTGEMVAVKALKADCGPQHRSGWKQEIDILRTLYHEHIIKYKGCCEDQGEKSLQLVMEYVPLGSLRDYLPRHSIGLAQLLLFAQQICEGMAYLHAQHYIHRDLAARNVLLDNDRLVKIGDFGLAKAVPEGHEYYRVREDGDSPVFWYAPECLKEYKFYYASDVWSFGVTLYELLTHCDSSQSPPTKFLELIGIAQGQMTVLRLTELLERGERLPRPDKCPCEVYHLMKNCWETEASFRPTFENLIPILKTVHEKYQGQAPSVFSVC

With `CNC(=O)c1nnc(Nc2ccc(C#CC3CCN(C(=O)CCCCCCC(=O)N[C@H](C(=O)N4C[C@H](O)C[C@H]4C(=O)N[C@@H](C)c4ccc(-c5scnc5C)cc4)C(C)(C)C)CC3)cn2)cc1Nc1cccc(-c2ncn(C)n2)c1OC` [CPD-119, 6-((5-((1-(8-(((S)-1-((2S,4R)-4-Hydroxy-2-(((S)-1-(4-(4-methylthiazol-5-yl)phenyl)ethyl)carbamoyl)pyrrolidin-1-yl)-3,3-dimethyl-1-oxobutan-2-yl)amino)-8-oxooctanoyl)piperidin-4-yl)ethynyl)pyridin-2-yl)amino)-4-((2-methoxy-3-(1-methyl-1H-1,2,4-triazol-3-yl)phenyl)amino)-N-methylpyridazine-3-carboxamide], the “TYK2 Degradation (NOMO-1, 100 nM)” value at TYK2 [1] is given as “A (A: ≥60% TYK2 degradation)”.

In the case of `CNC(=O)c1nnc(Nc2ccc(C(=O)NCCCNc3ccc4c(c3)C(=O)N(C3CCC(=O)NC3=O)C4=O)cn2)cc1Nc1cccc(-c2ncn(C)n2)c1OC` (stereo not drawn) [CDD-175, 6-((5-((3-((2-(2,6-dioxopiperidin-3-yl)-1,3-dioxoisoindolin-5-yl)amino)propyl)carbamoyl)pyridin-2-yl)amino)-4-((2-methoxy-3-(1-methyl-1H-1,2,4-triazol-3-yl)phenyl)amino)-N-methylpyridazine-3-carboxamide], at TYK2 [1] (10 nM), the “TYK2 Degradation (NOMO-1, 10 nM)” value is “A (A: ≥60% TYK2 degradation)”. Moreover, the “TYK2 Degradation (NOMO-1, 100 nM)” value on TYK2 [1] is listed as “A (A: ≥60% TYK2 degradation)”.

On to `CNC(=O)c1nnc(NC(=O)C2CC2)cc1Nc1cccc(-c2ncn(CCNC(=O)CCCC(=O)N[C@H](C(=O)N3C[C@H](O)C[C@H]3C(=O)NCc3ccc(-c4scnc4C)cc3)C(C)(C)C)n2)c1OC` [CPD-076, N^1-(2-(3-(3-((6-(Cyclopropanecarboxamido)-3-(methylcarbamoyl)pyridazin-4-yl)amino)-2-methoxyphenyl)-1H-1,2,4-triazol-1-yl)ethyl)-N^5-((S)-1-((2S,4R)-4-hydroxy-2-((4-(4-methylthiazol-5-yl)benzyl)carbamoyl)pyrrolidin-1-yl)-3,3-dimethyl-1-oxobutan-2-yl)glutaramide], for which, on TYK2 [2] (0.5 μM), the “TYK2 Degradation (0.5 μM)” value is reported as at most 20%. Besides, the “TYK2 Degradation (5 μM)” value on TYK2 [2] (5 μM) is on record as at most 20%.

Turning to `CNC(=O)c1nnc(NC(=O)CNC(=O)CCOCCOCCOCCNc2cccc3c2C(=O)N(C2CCC(=O)NC2=O)C3=O)cc1Nc1cccc(-c2ncn(C)n2)c1OC` (stereo not drawn) [CPD-051, 6-(1-((2-(2,6-Dioxopiperidin-3-yl)-1,3-dioxoisoindolin-4-yl)amino)-12-oxo-3,6,9-trioxa-13-azapentadecan-15-amido)-4-((2-methoxy-3-(1-methyl-1H-1,2,4-triazol-3-yl)phenyl)amino)-N-methylpyridazine-3-carboxamide], the “TYK2 Degradation (0.5 μM)” value at TYK2 [2] (0.5 μM) is given as at most 20%. In addition, the “TYK2 Degradation (5 μM)” value on TYK2 [2] (5 μM) is at most 20%.

Consider `CNC(=O)c1nnc(NC(=O)C2CC2)cc1Nc1cccc(-c2ncn(CCNC(=O)CCCCCCC(=O)N[C@H](C(=O)N3C[C@H](O)C[C@H]3C(=O)NCc3ccc(-c4scnc4C)cc3)C(C)(C)C)n2)c1OC` [CPD-079, N^1-(2-(3-(3-((6-(Cyclopropanecarboxamido)-3-(methylcarbamoyl)pyridazin-4-yl)amino)-2-methoxyphenyl)-1H-1,2,4-triazol-1-yl)ethyl)-N^8-((S)-1-((2S,4R)-4-hydroxy-2-((4-(4-methylthiazol-5-yl)benzyl)carbamoyl)pyrrolidin-1-yl)-3,3-dimethyl-1-oxobutan-2-yl)octanediamide], for which the “TYK2 Degradation (MOLT-4, 0.5 μM)” value at TYK2 [2] (0.5 μM) was “C (C: ≤20% TYK2 degradation)”. Further, the “TYK2 Degradation (MOLT-4, 5 μM)” value on TYK2 [2] (5 μM) is recorded as “C (C: ≤20% TYK2 degradation)”.

(Values after patent US20240059671A1, “TYROSINE KINASE 2 (TYK2) DEGRADATION COMPOUNDS AND METHODS OF USE” (CULLGEN (SHANGHAI), INC., priority 2020, published 2024).)
